# According to patent publication US20240336611A1 (Insilico Medicine IP Limited, priority 2021, published 2024):
# Experiments:
# [1] = Metabolic stability in human liver microsomes; assay type: in vitro ADME; conditions: LM Clint (intrinsic clearance); 1 μM test compound, 0.5 mg protein/mL microsome, 37° C., up to 60 min
# Protocol: 2.1. Test Compound and Control Working Solution Preparation: Working solution: 5 µL of compound and control stock solution (10 mM in dimethyl sulfoxide (DMSO)) were diluted with 495 μL of acetonitrile (ACN) (intermediate solution concentration: 100 μM, 99% ACN).
# 2.2.1. […] 2.2.2. Preparation Procedure: The appropriate amount of NADPH powder were weighed and diluted into a 10 mM MgCl2 solution (working solution concentration: 10 unit/mL; final concentration in reaction system: 1 unit/mL).
# 2.3.2. Preparation Procedure: The appropriate concentrations of microsome working solutions were prepared in 100 mM potassium phosphate buffer. 2.4. Stop Solution Preparation: Cold (4° C.) acetonitrile (ACN) containing 200 ng/mL tolbutamide and 200 ng/mL labetalol as internal standards (IS) were used as the stop solution.
# 2.5.1. Pre-warm empty ‘Incubation’ plates T60 and NCF60 for 10 min minutes. 2.5.2. Liver microsomes were diluted to 0.56 mg/mL in 100 mM phosphate buffer. 2.5.3. 445 uL microsome working solutions (0.56 mg/mL) were transferred into pre-warmed ‘Incubation’ plates T60 and NCF60. Then ‘Incubation’ plates T60 and NCF60 were pre-incubated for 10 min at 37° C. with constant shaking. 54 μL liver microsomes were transferred to blank plate, then 6 μL NAPDH cofactor were added to the blank plate, and then 180 μL quenching solution can be added to blank plate. 2.5.4 5 μL compound working solution (100 μM) were added into ‘incubation’ plates (T60 and NCF60) containing microsomes and mix 3 times thoroughly. 2.5.5. For the NCF60 plate, 50 uL of buffer were added and were mixed 3 times thoroughly. Start timing; plate was incubated at 37° C. for 60 min while shaking. 2.5.6. In ‘Quenching’ plate TO, 180 μL quenching solution were added and 6 μL NAPDH cofactor were added. Ensured the plate was chilled to prevent evaporation. 2.5.7. For the T60 plate, were mixed 3 times thoroughly, and immediately removed 54 μL mixture for the 0-min time point to ‘Quenching’ plate. Then 44 μL NAPDH cofactor were added to incubation plate (T60). Start timing; plate were incubated at 37° C. for 60 min while shaking.
# 2.5.8. At 5, 10, 20, 30, and 60 min, 180 μL quenching solution were added to ‘Quenching’ plates, mix once, and were serially transferred 60 μL sample from T60 plate per time point to ‘Quenching’ plates.
# 2.5.9. For NCF60: were mixed once, and 60 μL sample were transferred from the NCF60 incubation to ‘Quenching’ plate containing quenching solution at the 60-min time point.
# 2.5.10. All sampling plates were shaken for 10 min, then centrifuged at 4000 rpm for 20 minutes at 4° C. 2.5.11. 80 μL supernatant were transferred into 240 μL HPLC water, and were mixed by plate shaker for 10 min. 2.5.12. Each bioanalysis plate were sealed and shaken for 10 minutes prior to LC-MS/MS analysis.
# 3.1. The equation of first order kinetics were used to calculate T1/2 and Intrinsic clearance (CLint mic) in (μL/min/mg).
# Equation of first order kinetic.
# [2] = biological target: T1, TNIK kinase [amino acid sequence (1-367), Invitrogen] (Homo sapiens, UniProt Q9UKE5); test: TNIK kinase inhibition assay (Z-lyte FRET-peptide); assay type: biochemical; conditions: 0.625 nM TNIK kinase, 2 μM Ser/Thr 7 peptide, 64 μM ATP, one hour at room temperature
# T1 construct: purchased Invitrogen
# T1 sequence (Q9UKE5 1-367): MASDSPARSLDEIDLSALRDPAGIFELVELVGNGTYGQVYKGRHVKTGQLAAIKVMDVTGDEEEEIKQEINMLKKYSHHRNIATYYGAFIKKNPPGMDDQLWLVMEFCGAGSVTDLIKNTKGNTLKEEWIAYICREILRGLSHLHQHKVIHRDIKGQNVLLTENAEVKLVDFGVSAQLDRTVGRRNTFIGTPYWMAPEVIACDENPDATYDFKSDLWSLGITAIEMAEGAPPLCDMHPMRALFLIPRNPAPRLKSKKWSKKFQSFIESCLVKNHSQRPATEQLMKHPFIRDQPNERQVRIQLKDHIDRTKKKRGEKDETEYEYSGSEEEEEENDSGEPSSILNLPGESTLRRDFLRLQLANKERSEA
structure (smiles),measurement,setting,value
"CC(C)n1cnc(-c2ccc(F)cc2)c1-c1nc(C(=O)Nc2ccc3c(n2)CN(C)CC3)cs1 [Compound 43, 2-(4-(4-fluorophenyl)-1-isopropyl-1H-imidazol-5-yl)-N-(7-methyl-5,6,7,8-tetrahydro-1,7-naphthyridin-2-yl)thiazole-4-carboxamide]",Human Liver Microsome (μM/min/mg),[1],+ (>100 μM/min/mg as +)
same,IC50,[2],1 to 12 nM
"CC(C)n1cnc(-c2ccc(F)cc2)c1-c1nc(C(=O)Nc2ccc(N3CC4CC(C3)N4C)cn2)cs1 [Compound 44, 2-(4-(4-fluorophenyl)-1-isopropyl-1H-imidazol-5-yl)-N-(5-(6-methyl-3,6-diazabicyclo[3.1.1]heptan-3-yl)pyridin-2-yl)thiazole-4-carboxamide]",Human Liver Microsome (μM/min/mg),[1],++ (10-100 μM/min/mg as ++)
same,IC50,[2],1 to 12 nM
"CN1C2CC1CN(c1ccc(NC(=O)c3csc(-c4c(-c5ccc(F)cc5)ncn4C4CC4)n3)nc1)C2 [Compound 45, 2-(1-cyclopropyl-4-(4-fluorophenyl)-1H-imidazol-5-yl)-N-(5-(6-methyl-3,6-diazabicyclo[3.1.1]heptan-3-yl)pyridin-2-yl)thiazole-4-carboxamide]",Human Liver Microsome (μM/min/mg),[1],++ (10-100 μM/min/mg as ++)
same,IC50,[2],1 to 12 nM
"CN1[C@@H]2CC[C@H]1CN(c1ccc(NC(=O)c3csc(-c4c(-c5ccc(F)cc5)ncn4C4COC4)n3)nc1)C2 [Compound 51, 2-(4-(4-fluorophenyl)-1-(oxetan-3-yl)-1H-imidazol-5-yl)-N-(5-((1R,5S)-8-methyl-3,8-diazabicyclo[3.2.1]octan-3-yl)pyridin-2-yl)thiazole-4-carboxamide]",Human Liver Microsome (μM/min/mg),[1],++ (10-100 μM/min/mg as ++)
same,IC50,[2],1 to 12 nM
"CC(C)n1cnc(-c2ccc(F)cc2)c1-c1nc(C(=O)Nc2ccc(C3CCOCC3)cn2)c[nH]1 [Compound 53, 5′-(4-fluorophenyl)-3′-isopropyl-N-(5-(tetrahydro-2H-pyran-4-yl)pyridin-2-yl)-1H,3′H-[2,4′-biimidazole]-4-carboxamide]",Human Liver Microsome (μM/min/mg),[1],++ (10-100 μM/min/mg as ++)
same,IC50,[2],1 to 12 nM
"CC(C)n1cnc(-c2ccc(F)cc2)c1-c1nc(C(=O)Nc2ccc(C3COC3)cn2)c[nH]1 [Compound 54, 5′-(4-fluorophenyl)-3′-isopropyl-N-(5-(oxetan-3-yl)pyridin-2-yl)-1H,3′H-[2,4′-biimidazole]-4-carboxamide]",Human Liver Microsome (μM/min/mg),[1],++ (10-100 μM/min/mg as ++)
same,IC50,[2],1 to 12 nM
"CC(C)n1cnc(-c2ccc(F)cc2)c1-c1nc(C(=O)Nc2ccc(C3COC3)cc2F)c[nH]1 [Compound 55, N-(2-fluoro-4-(oxetan-3-yl)phenyl)-5′-(4-fluorophenyl)-3′-isopropyl-1H,3′H-[2,4′-biimidazole]-4-carboxamide]",Human Liver Microsome (μM/min/mg),[1],++ (10-100 μM/min/mg as ++)
same,IC50,[2],1 to 12 nM
"CC(C)n1cnc(-c2ccc(F)cc2)c1-c1nc(C(=O)Nc2ccc3c(c2)CN(C)CC3)cs1 [Compound 56, 2-(4-(4-fluorophenyl)-1-isopropyl-1H-imidazol-5-yl)-N-(2-methyl-1,2,3,4-tetrahydroisoquinolin-7-yl)thiazole-4-carboxamide]",Human Liver Microsome (μM/min/mg),[1],+ (>100 μM/min/mg as +)
same,IC50,[2],1 to 12 nM
"CC(C)n1cnc(-c2ccc(F)cc2)c1-c1nc(C(=O)Nc2ccc(C3COC3)cn2)cs1 [Compound 57, 2-(4-(4-fluorophenyl)-1-isopropyl-1H-imidazol-5-yl)-N-(5-(oxetan-3-yl)pyridin-2-yl)thiazole-4-carboxamide]",Human Liver Microsome (μM/min/mg),[1],+ (>100 μM/min/mg as +)
same,IC50,[2],1 to 12 nM
"CC(C)n1cnc(-c2ccc(F)cc2)c1-c1nc(C(=O)Nc2ccc(C3CN(C)C3)cc2F)cs1 [Compound 58, N-(2-fluoro-4-(1-methylazetidin-3-yl)phenyl)-2-(4-(4-fluorophenyl)-1-isopropyl-1H-imidazol-5-yl)thiazole-4-carboxamide]",Human Liver Microsome (μM/min/mg),[1],++ (10-100 μM/min/mg as ++)
same,IC50,[2],1 to 12 nM
CC(C)n1cnc(-c2ccc(F)cc2)c1-c1nc(C(=O)Nc2ccc(C3COC3)cc2F)cs1 [Compound 59],Human Liver Microsome (μM/min/mg),[1],+ (>100 μM/min/mg as +)
same,IC50,[2],1 to 12 nM
"CC(C)n1cnc(-c2ccc(F)cc2)c1-c1nc(C(=O)Nc2ccc(C3=C[C@H]4CC[C@@H](C3)N4C)cn2)cs1 [Compound 61, 2-(4-(4-fluorophenyl)-1-isopropyl-1H-imidazol-5-yl)-N-(5-((1R,5S)-8-methyl-8-azabicyclo[3.2.1]oct-2-en-3-yl)pyridin-2-yl)thiazole-4-carboxamide]",Human Liver Microsome (μM/min/mg),[1],++ (10-100 μM/min/mg as ++)
same,IC50,[2],1 to 12 nM
"O=C(Nc1ccc(C2COC2)cn1)c1coc(-c2c(-c3ccc(F)cc3)ncn2C2CC(F)(F)C2)n1 [Compound 63, 2-(1-(3,3-difluorocyclobutyl)-4-(4-fluorophenyl)-1H-imidazol-5-yl)-N-(5-(oxetan-3-yl)pyridin-2-yl)oxazole-4-carboxamide]",Human Liver Microsome (μM/min/mg),[1],+ (>100 μM/min/mg as +)
same,IC50,[2],> 150 nM
"CC(C)n1cnc(-c2ccc(F)cc2)c1-c1nc(C(=O)Nc2ccc(N3CC(N(C)C)C3)cn2)cs1 [Compound 64, N-(5-(3-(dimethylamino)azetidin-1-yl)pyridin-2-yl)-2-(4-(4-fluorophenyl)-1-isopropyl-1H-imidazol-5-yl)thiazole-4-carboxamide]",Human Liver Microsome (μM/min/mg),[1],+ (>100 μM/min/mg as +)
same,IC50,[2],1 to 12 nM
"O=C(Nc1ccc(N2CCOCC2)cn1)c1csc(-c2c(-c3ccc(F)cc3)ncn2C2CC(F)(F)C2)n1 [Compound 65, 2-(1-(3,3-difluorocyclobutyl)-4-(4-fluorophenyl)-1H-imidazol-5-yl)-N-(5-morpholinopyridin-2-yl)thiazole-4-carboxamide]",Human Liver Microsome (μM/min/mg),[1],++ (10-100 μM/min/mg as ++)
same,IC50,[2],1 to 12 nM
"O=C(Nc1ccc(N2CCOCC2)cn1)c1coc(-c2c(-c3ccc(F)cc3)ncn2C2CC(F)(F)C2)n1 [Compound 66, 2-(1-(3,3-difluorocyclobutyl)-4-(4-fluorophenyl)-1H-imidazol-5-yl)-N-(5-morpholinopyridin-2-yl)oxazole-4-carboxamide]",Human Liver Microsome (μM/min/mg),[1],++ (10-100 μM/min/mg as ++)
same,IC50,[2],12 to 150 nM
"O=C(Nc1ccc(N2CCC2)cn1)c1csc(-c2c(-c3ccc(F)cc3)ncn2C2CC(F)(F)C2)n1 [Compound 68, N-(5-(azetidin-1-yl)pyridin-2-yl)-2-(1-(3,3-difluorocyclobutyl)-4-(4-fluorophenyl)-1H-imidazol-5-yl)thiazole-4-carboxamide]",Human Liver Microsome (μM/min/mg),[1],++ (10-100 μM/min/mg as ++)
same,IC50,[2],1 to 12 nM
"O=C(Nc1ccc(N2CCOCC2)cn1)c1csc(-c2c(-c3ccc(F)cc3)ncn2C2COC2)n1 [Compound 70, 2-(4-(4-fluorophenyl)-1-(oxetan-3-yl)-1H-imidazol-5-yl)-N-(5-morpholinopyridin-2-yl)thiazole-4-carboxamide]",Human Liver Microsome (μM/min/mg),[1],++ (10-100 μM/min/mg as ++)
same,IC50,[2],1 to 12 nM
"O=C(Nc1ccc(C2COC2)cn1)c1csc(-c2c(-c3ccc(F)cc3)ncn2C2CC(F)(F)C2)n1 [Compound 74, 2-(1-(3,3-difluorocyclobutyl)-4-(4-fluorophenyl)-1H-imidazol-5-yl)-N-(5-(oxetan-3-yl)pyridin-2-yl)thiazole-4-carboxamide]",Human Liver Microsome (μM/min/mg),[1],+ (>100 μM/min/mg as +)
same,IC50,[2],1 to 12 nM
"O=C(Nc1ccc(C2COC2)cc1F)c1coc(-c2c(-c3ccc(F)cc3)ncn2C2CC(F)(F)C2)n1 [Compound 81, 2-(1-(3,3-difluorocyclobutyl)-4-(4-fluorophenyl)-1H-imidazol-5-yl)-N-(2-fluoro-4-(oxetan-3-yl)phenyl)oxazole-4-carboxamide]",Human Liver Microsome (μM/min/mg),[1],+ (>100 μM/min/mg as +)
same,IC50,[2],12 to 150 nM
